This is an account of results in ChEMBL document CHEMBL1151435, “Antileishmanial structure-activity relationships of synthetic phospholipids: in vitro and in vivo activities of selected derivatives” (Antimicrob Agents Chemother, 2007).

Where only a bound is given, the exact number is not on record here.

The subject of data set [1] is Leishmania donovani. Kind of data set: Antileishmanial activity against Leishmania donovani MHOM/ET/67/HU3 promastigotes by drug sensitivity assay. It is filed as functional, organism-based.
Data set [2] deals with Leishmania donovani. The data set can be described thus: Antileishmanial activity against intracellular Leishmania donovani MHOM/ET/67/HU3 amastigotes infected in peritoneal macrophages of Mesocricetus auratus by drug sensitivity assay. Type of data set: functional, organism-based.
The test system of data set [3] is Leishmania donovani. The data set can be described thus: Activity ratio of compound EC50 to miltefosine EC50 for intracellular Leishmania donovani MHOM/ET/67/HU3 amastigotes infected in peritoneal macrophages of Mesocricetus auratus. It is filed as functional.
Data set [4] concerns Leishmania donovani. The data set can be described thus: Antileishmanial activity against Leishmania donovani MHOM/ET/67/L82 infected in po dosed BALB/c mouse model. Type of data set: functional. The note with it: MHOM/ET/67/L82, po.
The test system of data set [5] is Leishmania donovani. The data set can be described thus: Antileishmanial activity against Leishmania donovani MHOM/ET/67/HU3 amastigotes infected in po dosed BALB/c mouse model administered one week after infection for 5 consecutive days measured after 3 days of last dose by Giemsa staining. Type of data set: functional. The note with it: for ED50: MHOM/ET/67/HU3, po.

Data set [6] has as its system Leishmania donovani. Kind of data set: Antileishmanial activity against Leishmania donovani MHOM/ET/67/HU3 amastigotes infected in ip dosed BALB/c mouse model administered one week after infection for 5 consecutive days measured after 3 days of last dose by Giemsa staining. The note with it: MHOM/ET/67/HU3, ip. Type of data set: functional.
Data set [7] is described as follows: Therapeutic index, ratio of EC50 for human KB cells to EC50 for intracellular Leishmania donovani MHOM/ET/67/HU3 amastigotes infected in peritoneal macrophages of Mesocricetus auratus. It is filed as cell-based. The settings on record: read-out: TI.
Data set [8] in a line: Therapeutic index, ratio of EC50 for human THP1 cells to EC50 for intracellular Leishmania donovani MHOM/ET/67/HU3 amastigotes infected in peritoneal macrophages of Mesocricetus auratus. Type of data set: cell-based, THP-1. The note with it: read-out: TI.
Data set [9] is described as follows: Solubility at phosphate-buffered saline of pH 7.4. The note with it: buffer. It is filed as physicochemical.
Data set [10] relates to Leishmania donovani. Kind of data set: Antileishmanial activity against Leishmania donovani MHOM/ET/67/HU3 amastigotes infected in ip dosed BALB/c mouse model administered as suspension one week after infection for 5 consecutive days measured after 3 days of last dose by Giemsa staining. Type of data set: functional. The settings on record: MHOM/ET/67/HU3, ip.

For `CCCCCCCCC(Br)C(Br)CCCCCCCCOP(=O)([O-])OCC[N+](C)(C)C` (configuration not stated), the midpoint of the response in the data set with Leishmania donovani [1], the EC50, lay at 1090 nM.

`CCCCCCCCCCCCCCCCCCOP(=O)([O-])OC1CC[N+](C)(CC)CC1` (configuration not stated): the EC50 (in general, the concentration giving half of the maximal effect) in the data set on Leishmania donovani [1] came to 2710 nM.

`CCCCCCCCCCCCCCCCOP(=O)([O-])OC1CC[N+](C)(CCc2ccccc2)CC1.O.O` (configuration not stated) displayed an EC50 in the data set on Leishmania donovani [2] of 990 nM. Also, in the data set on Leishmania donovani [3], the “Ratio EC50” value is listed as 0.49.

Consider `CCCCCCCCCCCCCCCCOP(=O)([O-])OCC[N+](C)(C)C` [MILTEFOSINE], for which the 50% effective concentration (EC50) with Leishmania donovani [1] was 5700 nM; in the data set on Leishmania donovani [2], 2040 nM. Also, the ED50 (in general, the dose that gives a 50% effect, or the effect in half of the subjects) with Leishmania donovani [4] was determined as 10 mg/kg; with Leishmania donovani [5] it was 8.09 mg/kg; with Leishmania donovani [6], 7.72 mg/kg. Moreover, the selectivity ratio in data set [7] turned out to be 0.83; in data set [8], 5.48.

Consider `CCCCCCCCCCCCCCCCCCOP(=O)([O-])OCC[N+]1(C)CCC(O)CC1` (configuration not stated), for which the values for the half-maximal effective concentration (EC50) in the data set with Leishmania donovani [1] and in the data set on Leishmania donovani [2] were 3060 nM and 1370 nM, respectively. For the same compound, the “Ratio EC50” value in the data set on Leishmania donovani [3] amounted to 0.41.

As for `CCCCCCCCCCCCCCCCCCOP(=O)([O-])OC1CC[N+](C)(Cc2ccccc2)CC1.O` (configuration not stated), the response in the data set with Leishmania donovani [2] was half-maximal at 400 nM (EC50). In the data set on Leishmania donovani [3], the “Ratio EC50” value is reported as 0.12.

`CCCCCCCCCCCCCCCCCCSCC(COC)COP(=O)([O-])OCC[N+]1(C)CCCCC1.O` (configuration not stated): the results for the EC50 in the data set on Leishmania donovani [1] and with Leishmania donovani [2] were 3610 nM and 250 nM, respectively. Further, in the data set on Leishmania donovani [3], the “Ratio EC50” value came out at 0.07.

Regarding `CCCCCCCCCCCCCCCCOP(=O)([O-])OCC[N+]12CCC(CC1)CC2.O`, the concentration giving a half-maximal response (EC50) with Leishmania donovani [2] stood at 550 nM. Further, the “Ratio EC50” value in the data set on Leishmania donovani [3] amounted to 0.16.

`CCCCCCCCCCCCCCCCCCOP(=O)([O-])OCC[N+](C)(C)C` [OCTADECYLPHOSPHONOCHOLINE] gave a half-maximal effective concentration (EC50) with Leishmania donovani [1] of 2400 nM.

In the data set with Leishmania donovani [2], `CCCCCCCCCCCCCCCCOP(=O)([O-])OCC[N+](C)(C)c1ccccc1.O` came in with a half-maximal effective concentration (EC50) of 580 nM. In addition, the “Ratio EC50” value with Leishmania donovani [3] came out at 0.11.

For the compound `CCCCCCCCCCCCCCCCCCOP(=O)([O-])OCC[N+]1(C)CCOCC1`, it took 940 nM to reach a half-maximal effect in the data set with Leishmania donovani [2] (EC50). The “Ratio EC50” value with Leishmania donovani [3] is 0.18.

Consider `CCCCCCCCCCCCCCCCCCOP(=O)([O-])OCC[N+](C)(C)C1CCCCC1.O`, for which the response with Leishmania donovani [2] was half-maximal at 1190 nM (EC50). Moreover, the “Ratio EC50” value in the data set on Leishmania donovani [3] was found to be 0.22.

As for `CCCCCCCCCCCCCCCCCCOCC(COP(=O)([O-])OCC[N+]1(C)CCCCC1)OC` (configuration not stated), the figures for the EC50 in the data set on Leishmania donovani [1] and in the data set on Leishmania donovani [2] were 1790 nM and 1680 nM, respectively. In addition, the “Ratio EC50” value in the data set on Leishmania donovani [3] stood at 0.32.

In the case of `CCCCCCCCCCCCCCCCOP(=O)([O-])OC1CC[N+](C)(Cc2ccccc2)CC1` (configuration not stated), the solubility result in data set [9] is “Soluble”. Also, the EC50 in the data set on Leishmania donovani [2] stood at 410 nM. The selectivity ratio in data set [7] is 179; in data set [8], more than 220. Also, the “Ratio EC50” value in the data set on Leishmania donovani [3] came to 0.12. The 50% effective dose (ED50) with Leishmania donovani [10] is 33 mg/kg.

As to `CCCCCCCCCCCCCCCCOCCCOP(=O)([O-])OCC[N+](C)(C)C`, the response in the data set on Leishmania donovani [1] was half-maximal at 1550 nM (EC50).

Take `CCCCCCCCCCCCCCCCOP(=O)([O-])OCC[N+]1(C)CCOCC1.O`: the half-maximal effective concentration (EC50) in the data set with Leishmania donovani [2] was 2460 nM. For the same compound, the “Ratio EC50” value in the data set with Leishmania donovani [3] worked out at 0.46.

`CCCCCCCCCCCCCCCCOCCOCCOCCOCCOCCOCCOCCOCCOCCOCCOP(=O)([O-])OC1CC[N+](C)(C)CC1`: the midpoint of the response in the data set with Leishmania donovani [2], the EC50, lay at 1320 nM. For the same compound, in the data set on Leishmania donovani [3], the “Ratio EC50” value was 0.4.

The compound `CCCCCCCCCCCCCCCCCCOP(=O)([O-])OCCC1CC[N+](C)(Cc2ccccc2)CC1.O.O` (configuration not stated) yielded a 50% effective concentration (EC50) in the data set with Leishmania donovani [2] of 820 nM. Also, the “Ratio EC50” value with Leishmania donovani [3] amounted to 0.25.

`CCCCCCCCCCCCCCCCCCOP(=O)([O-])OC1CC[N+](C)(C)CC1` [PERIFOSINE]: in the data set on Leishmania donovani [1], the EC50 is 3020 nM. In addition, in the data set on Leishmania donovani [4], it took a dose of 25.2 mg/kg to reach the 50% effect level (ED50). Further, in the data set with Leishmania donovani [3], the “Ratio EC50” value was 0.63.

For the compound `CCCCCCCCCCCCCCCCCCCOP(=O)([O-])OCC[N+]1(C)CCCCC1`, in the data set on Leishmania donovani [1], the response was half-maximal at 1290 nM (EC50).

For `CCCCCCCCCCCCCCCCCCOP(=O)([O-])OCC[N+]1(C)CCSCC1.O`, the 50% effective concentration (EC50) in the data set on Leishmania donovani [1] stood at 2370 nM; with Leishmania donovani [2], 1220 nM. Moreover, in the data set on Leishmania donovani [3], the “Ratio EC50” value is 0.23.

The compound `CCCCCCCCCCCCCCCCCCOP(=O)([O-])OC1CC[N+]2(CCCC2)CC1` displayed a half-maximal effective concentration (EC50) in the data set on Leishmania donovani [1] of 3060 nM.

`CCCCCCCCCCCCCCCCCCOP(=O)([O-])OC1CCC[N+](C)(C)C1` (configuration not stated) yielded a half-maximal effective concentration (EC50) in the data set on Leishmania donovani [2] of 430 nM. The “Ratio EC50” value in the data set with Leishmania donovani [3] was found to be 0.13.

Turning to `CCCCCCCCCCCCCCCCCCOP(=O)([O-])OC1CC2CCC(C1)[N+]2(C)C` (configuration not stated), the EC50 with Leishmania donovani [2] was 710 nM. The “Ratio EC50” value with Leishmania donovani [3] is 0.13.

With `CCCCCCCCCCCCCCCCCCOP(=O)([O-])OCC[N+](C)(C)C1CC1.O`, the 50% effective concentration (EC50) with Leishmania donovani [1] is 1520 nM; in the data set with Leishmania donovani [2], 2640 nM. For the same compound, the “Ratio EC50” value in the data set with Leishmania donovani [3] was determined as 0.5.

`CCCCCCCCCCCCCCCCCCOP(=O)([O-])OCCC1CC[N+](Cc2ccccc2)(Cc2ccccc2)CC1.O` showed a half-maximal effective concentration (EC50) with Leishmania donovani [2] of 760 nM. Moreover, in the data set with Leishmania donovani [3], the “Ratio EC50” value is 0.23.

On to `CCCCCCCCCCCCCCCCCC(C)OP(=O)([O-])OCC[N+](C)(C)C` (configuration not stated), for which the 50% effective concentration (EC50) in the data set with Leishmania donovani [1] amounted to 3350 nM.

Regarding `CCCCCCCCCCCCCCCCCCOCCOCCOP(=O)([O-])OCC[N+]1(C)CCCC1`, it took 3360 nM to reach a half-maximal effect in the data set on Leishmania donovani [1] (EC50).

In the data set on Leishmania donovani [1], `CCCCCCCCCCCCCCCCOCC(COP(=O)([O-])OCC[N+](C)(C)C)OC` (configuration not stated) displayed an EC50 of 3580 nM.

`CCCCCCCCCCCCCCCCCCOP(=O)([O-])OCC[N+](C)(C)CC` had a concentration for a half-maximal effect (EC50) in the data set with Leishmania donovani [1] of 2040 nM.

Take `CCCCCCCCCCCCCCCCOP(=O)([O-])OCC[N+]1(C)CCCCC1`: in the data set on Leishmania donovani [5], the Activity result was “Dose-dependent effect” and the ED50 worked out at 25.5 mg/kg. For the same compound, the concentration for a half-maximal effect (EC50) in the data set on Leishmania donovani [2] is 300 nM. The selectivity ratio in [7] stood at 23.4. Also, the “Ratio EC50” value in the data set with Leishmania donovani [3] worked out at 0.09. Also, in [8], the selectivity ratio came out at 95.7.

As to `CCCCCCCCCCCCCCCCCCOCC(COP(=O)([O-])OC1CC2CCC(C1)[N+]2(C)C)OC` (configuration not stated), the concentration giving a half-maximal response (EC50) in the data set on Leishmania donovani [1] stood at 1690 nM.

With `CCCCCCCCCCCCCCCCCCOP(=O)([O-])OC1CC[N+](CC)(CC)CC1.O.O`, it took a dose of 35.3 mg/kg to reach the 50% effect level in the data set with Leishmania donovani [5] (ED50). Moreover, the concentration giving a half-maximal response (EC50) with Leishmania donovani [2] was determined as 400 nM. For the same compound, the selectivity ratio in data set [7] was 6.89; in data set [8], 11.7. In the data set on Leishmania donovani [3], the “Ratio EC50” value is 0.12.
